Laboratory results taken from patent US20240139171A1, “TREATMENT AND/OR REDUCTION OF OCCURRENCE OF MIGRAINE” (CGRP Diagnostics GmbH, priority 2021, published 2024).

What was measured:
[1] = test system: naive central trigeminovascular neurons; details: in vivo; cited from earlier work
meningeal Aδ-fibers = details: in vivo; cited from earlier work
[2] = test system: naive high-threshold (HT) trigeminovascular neurons in the spinal trigeminal nucleus; experiment: Single-unit recording of spontaneous and evoked activity of naive HT trigeminovascular neurons; type: in vivo, rat; details: 30 mg/kg IV
From the text: (§1) Experiments were approved by the Beth Israel Deaconess Medical Center and Harvard Medical School standing committees on animal care, and in accordance with the U. S. National Institutes of Health Guide for the Care and Use of Laboratory Animals. Male and female Sprague-Dawley rats (250-350 g) were anesthetized with urethane (0.9-1.2 g/kg i.p.). They were fitted with an intra-tracheal tube to allow artificial ventilation (0.1 L/min of O2), and an intra-femoral-vein cannula for later infusion of drugs. Rats were placed in a stereotaxic apparatus, and core temperature was kept at 37° C. using a heating blanket. End-tidal CC was continuously monitored and kept within physiological range (3.5-4.5 pCC). Once stabilized, rats were paralyzed with rocuronium bromide (10 mg/ml, 1 ml/hr continuous intravenous infusion) and ventilated. For stimulation of the cranial dura later in the experiment, a 5×5-mm opening was carefully carved in the parietal and occipital bones in front and behind the lambda suture, directly above the left transverse sinus. The exposed dura was kept moist using a modified synthetic interstitial fluid (135 mM NaCl, 5 mM KCl, 1 mM MgCh, 5 mM CaCh, 10 mM glucose and 10 mM Hepes, pH 7.2). For single-unit recording in the spinal trigeminal nucleus, a segment of the spinal cord between the obex and C2 was uncovered from overlying tissues, stripped of the dura mater, and kept moist with mineral oil.
(§2) To record neuronal activity, a tungsten microelectrode (impedance 3-4 MO) was lowered repeatedly into the spinal trigeminal nucleus (STN) in search of central trigeminovascular neurons receiving convergent input from the dura and facial skin. Trigeminovascular neurons were first identified based on their responses to electrical stimulation of the dura. […] Dural receptive fields were mapped by indenting the dura (with the 4.19 g VFH monofilament) at points separated by 1 mm mediolaterally and rostrocaudally. Points at which dural indentation produced a response in >50% of the trials were considered inside the neurons receptive field. Cutaneous receptive fields were mapped by applying innocuous and noxious mechanical stimulation to all facial skin areas and the cornea. An area was considered outside the receptive field if no stimulus produced a response in >50% of the trials. Responses to mechanical stimulation of the skin were determined by applying brief (10 s) innocuous and noxious stimuli to the most sensitive portion of the cutaneous receptive field. Innocuous stimuli consisted of slowly passing a soft bristled brush across the cutaneous receptive field (one 5-s brush stroke from caudal to rostral and one 5-s brush stroke from rostral to caudal) and pressure applied with a loose arterial clip. Noxious stimuli consisted of pinch with a strong arterial clip (Palecek et al, 1992, J. Neurophysiol. 67: 1562-1573; Dado et al, 1994, J. Neurophysiol. 71:981-1002; Burstein et al., 1998, J. Neurophysiol. 79:964-982). More intense or prolonged stimuli were not used to avoid inducing prolonged changes in spontaneous neuronal discharge or response properties. Responses to mechanical stimulation of the cornea consisted of gentle and slow brushing strokes with a thin paintbrush (about 10 hair-follicles). Two classes of neurons were thus identified: wide-dynamic-range (WDR) neurons (incrementally responsive to brush, pressure and pinch), and high-threshold (HT) neurons (unresponsive to brush). Real-time waveform discriminator was used to create and store a template for the action potential evoked in the neuron under study by electrical pulses on the dura; spikes of activity matching the template waveform were acquired and analyzed online and offline using Spike 2 software (CED, Cambridge, UK). Induction and recording of cortical spreading depression.
(§3) Cortical spreading depression (CSD) was induced mechanically by inserting a glass micropipette (tip diameter 25 μm) about 1 mm into the visual cortex for 10 sec. […]

[3] = test system: wide-dynamic-range (WDR) trigeminovascular neurons; experiment: Activation of WDR trigeminovascular neurons by cortical spreading depression (CSD); type: in vivo, rat; details: male and female rats, 30 mg/kg IV
From the text: Experiments were approved by the Beth Israel Deaconess Medical Center and Harvard Medical School standing committees on animal care, and in accordance with the U. S. National Institutes of Health Guide for the Care and Use of Laboratory Animals. Male and female Sprague-Dawley rats (250-350 g) were anesthetized with urethane (0.9-1.2 g/kg i.p.). They were fitted with an intra-tracheal tube to allow artificial ventilation (0.1 L/min of O2), and an intra-femoral-vein cannula for later infusion of drugs. Rats were placed in a stereotaxic apparatus, and core temperature was kept at 37° C. using a heating blanket. End-tidal CC was continuously monitored and kept within physiological range (3.5-4.5 pCC). Once stabilized, rats were paralyzed with rocuronium bromide (10 mg/ml, 1 ml/hr continuous intravenous infusion) and ventilated. […]
To record neuronal activity, a tungsten microelectrode (impedance 3-4 MO) was lowered repeatedly into the spinal trigeminal nucleus (STN) in search of central trigeminovascular neurons receiving convergent input from the dura and facial skin. […] Responses to mechanical stimulation of the skin were determined by applying brief (10 s) innocuous and noxious stimuli to the most sensitive portion of the cutaneous receptive field. […]

[4] = test system: high-threshold (HT) trigeminovascular neurons; experiment: Activation and sensitization of HT trigeminovascular neurons by cortical spreading depression (CSD); type: in vivo, rat; details: 30 mg/kg IV; for mean firing rate of HT neurons before CSD: before CSD (4 hours post-treatment)
From the text: as §1, §2, §3

[5] = test system: naive wide-dynamic-range (WDR) trigeminovascular neurons in the spinal trigeminal nucleus; experiment: Single-unit recording of spontaneous and evoked activity of naive WDR trigeminovascular neurons; type: in vivo, rat; details: 30 mg/kg IV
From the text: as §1, with “For single-unit recording in the spinal trigeminal nucleus, a segment of the spinal cord between the obex and C2 was uncovered from overlying tissues, stripped of the dura mater, and kept moist with mineral oil.” left out
To record neuronal activity, a tungsten microelectrode (impedance 3-4 MO) was lowered repeatedly into the spinal trigeminal nucleus (STN) in search of central trigeminovascular neurons receiving convergent input from the dura and facial skin. […] Responses to mechanical stimulation of the skin were determined by applying brief (10 s) innocuous and noxious stimuli to the most sensitive portion of the cutaneous receptive field. […] Real-time waveform discriminator was used to create and store a template for the action potential evoked in the neuron under study by electrical pulses on the dura; spikes of activity matching the template waveform were acquired and analyzed online and offline using Spike 2 software (CED, Cambridge, UK). […]

[6] = female rats, 2 hours after CSD, 6 hours after administration
[7] = male and female rats, 2 hours after CSD, 6 hours after administration
[8] = male rats, 2 hours after CSD, 6 hours after administration

In the case of `NCCCC[C@H](NC(=O)[C@@H](Cc1cc(Br)c(O)c(Br)c1)NC(=O)N1CCC(N2Cc3ccccc3NC2=O)CC1)C(=O)N1CCN(c2ccncc2)CC1` [BIBN4096BS], the “effect on naive central trigeminovascular neurons responses to electrical stimulation of the superior sagittal sinus and microiontophoretic L-glutamate” value [1] is listed as “inhibits”.
In the case of fremanezumab [CGRP-mAb], the “effect on meningeal Aδ-fibers” value (meningeal Aδ-fibers) is given as “inhibits”, the “decrease in firing of HT neurons to mechanical stimulation of the dura” value ([2]; female rats) is given as 61% and the “effect on spontaneous activity of HT neurons” value ([2]; female rats) is given as “did not reduce the spontaneous activity of HT or WDR neurons”. For the same molecule, the “effect on sensitivity of HT neurons to mechanical stimulation of the dura” value ([2]; male and female rats) was “reduced the sensitivity to mechanical stimulation of the dura in the HT”, the “effect on responses of HT neurons to innocuous (brush, pressure) or noxious (pinch) mechanical stimulation of the skin or the cornea” value ([2]; male or female rats) was “did not alter the responses of HT or WDR neurons” and the “decrease in firing of HT neurons to mechanical stimulation of the dura” value ([2]; male rats) was 75%. The “effect on spontaneous activity of HT neurons” value ([2]; male rats) was “reduced the spontaneous activity of the HT”, the “decrease in spontaneous neuronal firing of HT neurons” value ([2]; male rats, within 3-4 hrs) was 90% and the “difference in proportion of WDR neurons activated by CSD, CGRP-mAb vs isotype-conAb” value [3] was 2%. The “WDR neurons activated by CSD (case-by-case analysis)” value ([3]; activated/tested neurons) was 5/13, the “HT neurons with expanded dural receptive fields after CSD” value ([4]; female rats) was 0/6 and the “HT neurons with expanded facial receptive fields after CSD” value ([4]; female rats) was 0/6. The “change of HT response to brushing the cornea after CSD” value ([4]; female rats) was “remained unchanged”, the “HT neuronal responses to dural indentation with VFH after CSD” value [4, 6] was 8.1±6.4 spikes/sec and the “mean firing rate of HT neurons after CSD” value [4, 6] was 5.0±3.4 spikes/sec. For the same molecule, the “HT neuronal responses to dural indentation with VFH before CSD” value ([4]; female rats, before CSD) was 10.5±1.6 spikes/sec, the “mean firing rate of HT neurons before CSD” value ([4]; female rats) was 3.3±1.7 spikes/sec and the “difference in proportion of HT neurons activated by CSD, CGRP-mAb vs isotype-conAb” value ([4]; male and female rats) was 86%. For the same molecule, the “change of HT neuronal responses to brush after CSD” value [4, 7] was “remained unchanged”, the “change of HT neuronal responses to pinch after CSD” value [4, 7] was “remained unchanged” and the “change of HT neuronal responses to pressure after CSD” value [4, 7] was “remained unchanged”. The “HT neurons activated by CSD (case-by-case analysis)” value ([4]; male and female rats, activated/tested neurons) was 2/14, the “HT neurons with expanded dural receptive fields after CSD” value ([4]; male rats) was 2/8 and the “HT neurons with expanded facial receptive fields after CSD” value ([4]; male rats) was 2/8. For the same molecule, the “HT neuronal responses to dural indentation with VFH after CSD” value [4, 8] was 1.9±1.5 spikes/sec, the “mean firing rate of HT neurons after CSD” value [4, 8] was 1.9±1.5 spikes/sec and the “HT responses to corneal stimulation after CSD” value ([4]; male rats, after CSD) was 9. ±1.8 spikes/sec. For the same molecule, the “HT neuronal responses to dural indentation with VFH before CSD” value ([4]; male rats, before CSD) was 1.8±0.6 spikes/sec, the “HT responses to corneal stimulation before CSD” value ([4]; male rats, before CSD) was 10.8±3.3 spikes/sec and the “mean firing rate of HT neurons before CSD” value ([4]; male rats) was 1.2±0.6 spikes/sec. The “effect on spontaneous activity of WDR neurons” value ([5]; female rats) was “did not reduce the spontaneous activity of HT or WDR neurons”, the “effect on sensitivity of WDR neurons to mechanical stimulation of the dura” value ([5]; male and female rats) was “but not the WDR neurons” and the “effect on responses of WDR neurons to innocuous (brush, pressure) or noxious (pinch) mechanical stimulation of the skin or the cornea” value ([5]; male or female rats) was “did not alter the responses of HT or WDR neurons”.
